The target in one assay is human orexin-1 receptor (Homo sapiens (Human), UniProt O43613). The assay can be described thus: In vitro assay: intracellular calcium measurements (FLIPR), antagonistic activity. It counts as cell-based. Conditions: CHO cells expressing human orexin-1 receptor, orexin-A agonist, geometric mean, read-out: IC50 Ox1. In short, it runs like this:
(§1)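 Dye-loaded CHO cells expressing either human orexin receptor are exposed to test antagonist for 120 min, then stimulated with orexin-A at 3 nM.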

A further assay deals with human orexin-2 receptor (Homo sapiens (Human), UniProt O43614). The description is as above. It counts as cell-based. Conditions: CHO cells expressing human orexin-2 receptor, orexin-A agonist, geometric mean, read-out: IC50 Ox2. In short, it runs like this: as §1
human orexin-2 receptor, sequence (O43614 whole entry): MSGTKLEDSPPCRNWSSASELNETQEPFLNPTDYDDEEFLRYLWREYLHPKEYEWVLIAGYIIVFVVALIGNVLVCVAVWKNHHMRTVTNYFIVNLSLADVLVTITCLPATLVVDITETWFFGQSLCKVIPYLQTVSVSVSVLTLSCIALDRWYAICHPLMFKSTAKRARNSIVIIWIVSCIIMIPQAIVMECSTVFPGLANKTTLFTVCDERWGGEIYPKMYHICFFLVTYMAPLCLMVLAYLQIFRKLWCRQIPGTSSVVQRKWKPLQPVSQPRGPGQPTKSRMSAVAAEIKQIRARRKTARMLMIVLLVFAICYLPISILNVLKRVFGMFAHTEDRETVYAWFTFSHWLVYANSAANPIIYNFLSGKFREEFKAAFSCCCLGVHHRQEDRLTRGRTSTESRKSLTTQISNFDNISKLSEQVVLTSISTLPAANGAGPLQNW

human orexin-1 receptor, sequence (O43613 whole entry): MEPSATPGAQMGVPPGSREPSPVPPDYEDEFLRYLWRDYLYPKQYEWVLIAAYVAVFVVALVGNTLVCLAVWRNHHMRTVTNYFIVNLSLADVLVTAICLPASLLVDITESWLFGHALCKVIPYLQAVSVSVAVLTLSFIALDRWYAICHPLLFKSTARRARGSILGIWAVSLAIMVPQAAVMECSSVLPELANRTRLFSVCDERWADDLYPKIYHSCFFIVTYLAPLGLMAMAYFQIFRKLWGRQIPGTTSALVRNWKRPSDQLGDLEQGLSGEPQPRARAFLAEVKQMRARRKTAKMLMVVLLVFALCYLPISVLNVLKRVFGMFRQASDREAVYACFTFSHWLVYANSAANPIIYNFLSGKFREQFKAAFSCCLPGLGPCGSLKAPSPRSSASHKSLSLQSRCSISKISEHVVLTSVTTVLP

With `COc1ccc2nc([C@@H]3C[C@@H](OC)CN3C(=O)c3cc(F)ccc3-n3nccn3)[nH]c2c1` [Ex. 3.23], the figures for the 50% inhibitory concentration (IC50) on human orexin-1 receptor and at human orexin-2 receptor were 3890 nM and 67 nM, respectively.
On the same counts, the results for `COCCn1c([C@]2(C)CCCN2C(=O)c2cc(C)ccc2-c2cccc(F)c2)nc2cc(C)c(C)cc21` [Ex. 7.36] are 16 nM and 115 nM.
On the same counts, the results for `Cc1ccc(-c2ccc(OC(F)(F)F)cc2)c(C(=O)N2CCC[C@@]2(C)c2nc3cc(C(F)(F)F)c(Cl)cc3[nH]2)c1` [Ex. 5.158] are 525 nM and 879 nM.
With `Cc1nc(C(=O)N2CCCC2c2nc3cc(Br)cc(C)c3[nH]2)c(-c2cccc(Cl)c2)s1` (stereo not drawn) [Ex. 1.107], the IC50 was determined as 28 nM at human orexin-1 receptor and 58 nM on human orexin-2 receptor.
As to `COc1ccc2nc([C@@H]3CCCN3C(=O)c3cc(F)ccc3-n3nccn3)[nH]c2c1` [Ex. 1.156], the results for the half-maximal inhibitory concentration (IC50) at human orexin-1 receptor and at human orexin-2 receptor were 1810 nM and 29 nM, respectively.
In the case of `COc1ccc2nc([C@@H]3CCCN3C(=O)c3ccc(C)cc3-n3nccn3)[nH]c2c1` [Ex. 1.160], the half-inhibitory concentration (IC50) was 245 nM at human orexin-1 receptor and 5 nM at human orexin-2 receptor.
For the compound `Cc1ccc(-c2ccc(C)cc2C(=O)N2CCC[C@@]2(C)c2nc3cc(C(F)(F)F)ccc3[nH]2)cc1` [Ex. 5.192], the values for the IC50 at human orexin-1 receptor and at human orexin-2 receptor were 23 nM and 88 nM, respectively.
In the same order, the values of `Cc1ccc(-n2nccn2)c(C(=O)N2CC(F)(F)C[C@H]2c2nc3c(C)c(Cl)ccc3[nH]2)c1` [Ex. 2.6] are 52 nM and 59 nM.
In the same order, the values of `CSc1cccc2nc([C@@H]3CCCN3C(=O)c3nc(C)sc3-c3cccc(Cl)c3Cl)[nH]c12` [Ex. 1.62] are 128 nM and 197 nM.
Turning to `Cc1nc(C(=O)N2CCC[C@H]2c2nc3c(C)c(Cl)ccc3[nH]2)c(-c2ccccc2)s1` [Ex. 1.145], the concentration for half-maximal inhibition (IC50) at human orexin-1 receptor stood at 3 nM; on human orexin-2 receptor it was 7 nM.
Consider `C=C1C[C@@H](c2nc3cccc(C)c3[nH]2)N(C(=O)c2nc(C)sc2-c2ccc(Br)cc2)C1` [Ex. 6.100], for which the values for the IC50 at human orexin-1 receptor and on human orexin-2 receptor were 55 nM and 4 nM, respectively.
In the same order, the values of `CO[C@@H]1C[C@@H](c2nc3ccc(Cl)c(C)c3[nH]2)N(C(=O)c2nc(C)sc2-c2ccc(Cl)cc2)C1` [Ex. 3.35] are 3 nM and 4 nM.
For `COc1ccc(-c2ccc(F)cc2)c(C(=O)N2CCC[C@@]2(C)c2nc3ccc(Cl)c(C)c3[nH]2)c1F` [Ex. 5.299], the IC50 amounted to 17 nM on human orexin-1 receptor and 21 nM at human orexin-2 receptor.
`COc1cc2nc([C@]3(C)CCCN3C(=O)c3cc(Cl)ccc3-n3nccn3)n(C)c2cc1OC` [Ex. 7.24]: the half-maximal inhibitory concentration (IC50) on human orexin-1 receptor and on human orexin-2 receptor was 33 nM each time.
In the case of `CCOc1ccc(-c2ccc(C)cc2C(=O)N2CCC[C@@]2(C)c2nc3cc(C(F)(F)F)c(Cl)cc3[nH]2)cc1` [Ex. 5.162], the IC50 at human orexin-1 receptor is 252 nM; on human orexin-2 receptor, 250 nM.
As for `COc1ccc2[nH]c(C3CCCN3C(=O)c3cc(C)ccc3-n3nccn3)nc2c1` (stereo not drawn) [Ex. 1.141], the IC50 was determined as 507 nM on human orexin-1 receptor and 13 nM on human orexin-2 receptor.
In the same order, the values of `Cc1nc(C(=O)N2CC[C@H](C)[C@H]2c2nc3cc(C)c(C)cc3[nH]2)c(-c2ccc(F)cc2)s1` [Ex. 4.90] are 6 nM and 2350 nM.
`COc1cc2nc([C@]3(C)CCCN3C(=O)c3cc(C)ccc3-n3nccn3)[nH]c2cc1OC` [Ex. 5.21]: the IC50 was determined as 22 nM at human orexin-1 receptor and 18 nM at human orexin-2 receptor.
Turning to `Cc1nc(C(=O)N2CCCC2c2nc3c(C)c(C)ccc3[nH]2)c(-c2ccccc2)s1` (stereo not drawn) [Ex. 1.139], the IC50 at human orexin-1 receptor turned out to be 103 nM; at human orexin-2 receptor, 26 nM.
In the same order, the values of `Cc1ccc(-c2ccccc2F)c(C(=O)N2CCC[C@@]2(C)c2nc3cc(C)c(C)cc3n2C)c1` [Ex. 7.43] are 24 nM and 42 nM.
`Cc1nc(C(=O)N2CCC[C@H]2c2nc3cc(Cl)c(C)cc3[nH]2)c(-c2ccccc2)s1` [Ex. 1.143]: the IC50 on human orexin-1 receptor was 14 nM; on human orexin-2 receptor, 16 nM.
In the same order, the values of `C=C1C[C@@H](c2nc3c(C)c(C)ccc3[nH]2)N(C(=O)c2nc(C)sc2-c2ccc(C)c(C)c2)C1` [Ex. 6.47] are 6 nM and 1 nM.
Regarding `C=C1C[C@@H](c2nc3cc(C)c(C)cc3[nH]2)N(C(=O)c2c(-n3nccn3)ccc(C)c2F)C1` [Ex. 6.196], the IC50 worked out at 59 nM on human orexin-1 receptor and 12 nM on human orexin-2 receptor.
On the same counts, the results for `C=C1C[C@@H](c2nc3cc(Cl)c(C(F)(F)F)cc3[nH]2)N(C(=O)c2ccccc2-n2cccn2)C1` [Ex. 6.188] are 115 nM and 66 nM.
In the same order, the values of `Cc1c(Cl)ccc2[nH]c([C@]3(C)CCCN3C(=O)c3ccccc3-n3nccn3)nc12` [Ex. 5.46] are 6 nM and 14 nM.
On the same counts, the results for `COc1cc(C(=O)N2CCC[C@@]2(C)c2nc3cc(C)c(C)cc3[nH]2)c(-n2nccn2)cc1OC` [Ex. 5.57] are 57 nM and 55 nM.
`COc1ccc(-n2nccn2)c(C(=O)N2C[C@H](OC)CC2(C)c2nc3c(C)c(Cl)ccc3[nH]2)c1F` (stereo partly drawn) [Ex. 3.46]: the figures for the IC50 on human orexin-1 receptor and on human orexin-2 receptor were 223 nM and 288 nM, respectively.
Turning to `Cc1nc(C(=O)N2CCCC2c2nc3cc(C(F)(F)F)ccc3[nH]2)c(-c2cccc(Cl)c2)s1` (stereo not drawn) [Ex. 1.94], the IC50 on human orexin-1 receptor came to 42 nM; at human orexin-2 receptor it was 414 nM.
`Cc1nc(C(=O)N2CCCC2c2nc3cc(F)c(Br)cc3[nH]2)c(-c2cccc(Cl)c2)s1` (stereo not drawn) [Ex. 1.112]: the IC50 on human orexin-1 receptor turned out to be 69 nM; on human orexin-2 receptor, 289 nM.
On the same counts, the results for `Cc1ccc(C(=O)N2CC[C@H](C)[C@H]2c2nc3cc(Cl)c(C)cc3[nH]2)c(-c2ccccn2)c1` [Ex. 4.109] are 3 nM and 108 nM.
On to `C=C1C[C@@H](c2nc3cc(C(C)(C)C)ccc3[nH]2)N(C(=O)c2c(-n3nccn3)ccc(C)c2F)C1` [Ex. 6.164], for which the IC50 on human orexin-1 receptor is 100 nM; at human orexin-2 receptor, 9 nM.
In the same order, the values of `COc1cccc(C#Cc2ccccc2C(=O)N2CCC[C@@]2(C)c2nc3cc(C(F)(F)F)ccc3[nH]2)c1` [Ex. 5.250] are 184 nM and 992 nM.
For `C=C1C[C@@H](c2nc3cccc(Cl)c3[nH]2)N(C(=O)c2cc(C)ccc2-n2nccn2)C1` [Ex. 6.69], the half-maximal inhibitory concentration (IC50) on human orexin-1 receptor was 389 nM; on human orexin-2 receptor it was 51 nM.
On the same counts, the results for `COc1cc2nc([C@@H]3[C@@H](C)CCN3C(=O)c3cc(Cl)ccc3-n3nccn3)[nH]c2cc1OC` [Ex. 4.40] are 21 nM and 28 nM.
Regarding `Cc1nc(C(=O)N2CCC[C@H]2c2nc3c(C)cc(Br)cc3[nH]2)c(-c2ccccc2)s1` [Ex. 1.144], the IC50 came to 33 nM at human orexin-1 receptor and 27 nM at human orexin-2 receptor.
Consider `CSc1cccc2nc([C@@H]3CCCN3C(=O)c3nc(C)sc3-c3ccc(C)cc3)[nH]c12` [Ex. 1.66], for which the IC50 was determined as 20 nM on human orexin-1 receptor and 47 nM on human orexin-2 receptor.
Turning to `Cc1ccc2[nH]c([C@]3(C)CCCN3C(=O)c3ccccc3-c3ccccc3F)nc2c1C` [Ex. 5.121], the IC50 at human orexin-1 receptor was found to be 56 nM; on human orexin-2 receptor, 43 nM.
For the compound `C=C1C[C@@H](c2nc3cc(OC)ccc3[nH]2)N(C(=O)c2cnc(C)nc2-c2cccc(C)c2)C1` [Ex. 6.11], the figures for the IC50 at human orexin-1 receptor and at human orexin-2 receptor were 135 nM and 56 nM, respectively.
With `C=C1C[C@@H](c2nc3cc(OC)ccc3[nH]2)N(C(=O)c2ccccc2-c2ccc(C)cc2)C1` [Ex. 6.15], the 50% inhibitory concentration (IC50) worked out at 298 nM on human orexin-1 receptor and 37 nM at human orexin-2 receptor.
As to `C=C1C[C@@H](c2nc3cc(OC)ccc3[nH]2)N(C(=O)c2cncnc2-c2cccc(C)c2)C1` [Ex. 6.17], the half-maximal inhibitory concentration (IC50) on human orexin-1 receptor was determined as 308 nM; on human orexin-2 receptor it was 47 nM.
For `Cc1ccc(-n2cccn2)c(C(=O)N2CC[C@H](C)[C@H]2c2nc3cc(Cl)c(C)cc3[nH]2)c1` [Ex. 4.73], the half-inhibitory concentration (IC50) at human orexin-1 receptor is 17 nM; at human orexin-2 receptor it was 1290 nM.
On the same counts, the results for `Cc1nc(C(=O)N2CC[C@H](C)[C@H]2c2nc3c(C)c(C)ccc3[nH]2)c(-c2cccc(Cl)c2)s1` [Ex. 4.24] are 2 nM and 367 nM.
In the case of `COc1cc2nc([C@@H]3[C@@H](C)CCN3C(=O)c3ccc(C)cc3-n3nccn3)[nH]c2cc1OC` [Ex. 4.46], the IC50 on human orexin-1 receptor was 14 nM; at human orexin-2 receptor, 51 nM.
Regarding `Cc1nc(C(=O)N2CCC[C@@]2(C)c2nc3c(C)c(C)c(Br)cc3[nH]2)c(-c2ccccc2C)s1` [Ex. 5.271], the figures for the 50% inhibitory concentration (IC50) on human orexin-1 receptor and at human orexin-2 receptor were 5 nM and 6 nM, respectively.
On the same counts, the results for `COc1cccc(-c2ccc(C)cc2C(=O)N2CCC[C@@]2(C)c2nc3cc(C)c(C)cc3n2C)c1` [Ex. 7.42] are 38 nM and 28 nM.
In the same order, the values of `COc1cccc(-c2sc(C)nc2C(=O)N2CCC[C@@]2(C)c2nc3c(C)c(C)c(Br)cc3[nH]2)c1` [Ex. 5.275] are 5 nM and 6 nM.
`C[C@@]1(c2nc3cc(C(F)(F)F)c(Cl)cc3[nH]2)CCCN1C(=O)c1ccccc1-n1nccn1` [Ex. 5.142]: the IC50 on human orexin-1 receptor came to 8 nM; at human orexin-2 receptor it was 24 nM.
In the same order, the values of `COc1cc2nc([C@]3(C)CCCN3C(=O)c3cc(F)ccc3-n3nccn3)[nH]c2cc1OC` [Ex. 5.65] are 200 nM and 154 nM.
For `C=C1C[C@@H](c2nc3ccc(Cl)c(C)c3[nH]2)N(C(=O)c2nc(C)sc2-c2ccc(F)c(Br)c2)C1` [Ex. 6.125], the IC50 at human orexin-1 receptor was determined as 2 nM; on human orexin-2 receptor, 0.8 nM.
On the same counts, the results for `Cc1nc(C(=O)N2CCC[C@@]2(C)c2nc3c(C)c(Cl)ccc3[nH]2)c(-c2cccc(Cl)c2)s1` [Ex. 5.5] are 3 nM and 5 nM.
Turning to `Cc1ccc(-c2nc(C(=O)N3CCC[C@@]3(C)c3nc4c(C)c(Cl)ccc4[nH]3)c(-c3ccc(F)cc3)s2)cc1Cl` [Ex. 5.258], the IC50 at human orexin-1 receptor is 36 nM; at human orexin-2 receptor, 6520 nM.
